Experiment: xn = mol fraction of the nth substance listed
Conditions: 100 kPa, Liquid, Vibrating tube method

Cc1ncc(CO)c(CO)c1O.Cl [5-hydroxy-6-methyl-3,4-pyridinedimethanol hydrochloride] + O
Conditions	mass density [kg/m3]
293.15 K, x1 = 0.01626	1093.5
298.15 K, x1 = 0.01886	1104.7
303.15 K, x1 = 0.02222	1111
308.15 K, x1 = 0.02522	1120.8
313.15 K, x1 = 0.02666	1133.3
318.15 K, x1 = 0.02818	1141.5
323.15 K, x1 = 0.0329	1154.6
